# Measurements: US11419833B2, “Nasally administered pharmaceutical composition for the treatment of epilepsy and related disorders” (priority 2020, dated 2022)
# “Also recorded” adds a separate entry of the source.
# Assays:
# Cfos = Cfos gene expression (qRT-PCR) in PTZ-induced acute seizure; format: in vivo, rats; settings: cortex and hippocampus, p<0.01
# Excerpt: (§1) Rats were decapitated after recording the EEG to collect the brain samples. Cortex and hippocampus regions of brain were excised out to conduct analysis of gene expression using qRT-PCR. The tissue samples were processed for RNA isolation followed by synthesis of cDNA using Revert Aid First strand cDNA synthesis kit (Thermo Scientific). The template cDNA were then used for the amplification of BDNF and Cfos using SYBER green qPCR Master mix (Thermo Scientific). The relative gene expression was determined by comparing 2-ΔΔCt values normalized to β-actin.
# BDNF = BDNF gene expression (qRT-PCR) in PTZ-induced acute seizure; format: in vivo, rats; settings: cortex and hippocampus, p<0.01
# Excerpt: as §1
# [1] = system: PTZ-induced epileptiform activity; experiment: PTZ-induced epileptiform activity, intraperitoneal administration (EEG protocol); format: in vivo, rats; settings: for spike discharge: Z-acid 150 mg/kg i.p. or diazepam 5 mg/kg, 10 min after PTZ 100 mg/kg, vs PTZ-injected animals, P<0.01
# Method: In this set of experiment, effect of Z-acid was investigated on PTZ-induced epileptiform activity. Rats (210±10 g) were divided into six groups as control, diazepam, Z-acid, PTZ, PTZ+diazepam, PTZ+Z-acid with 6 sample size in each group. PTZ was injected at the dose of 100 mg/kg. Z-acid was intraperitoneally injected in anesthetized rats at the dose of 150 mg/kg whereas drug control group was treated with 5 mg/kg dose of diazepam. Saline was used as placebo. PTZ was prepared in saline whereas Z-acid was dissolved in 0.1 N NaOH. EEG was recorded from cortical region of the rat brain.
# The protocol was started by anesthetizing rat followed by fixing the animal in stereotaxic apparatus for surgery. The skin was removed to expose the bregma and lambda region of the skull. Three holes of 0.6 mm diameter were drilled with the help of a manual drill. One hole was made on the parietal lobe for the placement of active electrode whereas two were made on the occipital lobes for reference and ground electrodes. A screw with the length of 5 mm and diameter of 0.5 mm was inserted on each hole and electrodes were then connected with the EEG recording system. The recording was started by monitoring the baseline EEG recording for 5 min. After 5 min of noise-free recording, PTZ was injected to induce acute seizures. The EEG recording after the injection of PTZ was continued for 10 min to observe the induction of epileptiform activity. […] After 10 min of recording, Z-acid was injected intraperitoneally to observe its effects on PTZ-induced epileptiform activity.
# glutamate levels = experiment: Glutamate levels (ELISA) in PTZ-induced acute seizure; format: in vivo, rats; settings: cortex and hippocampus, p<0.01
# Excerpt: Glutamate levels were also estimated in cortex and hippocampus following the administration of Z-acid formulation I. The glutamate levels were estimated using ELISA kit method (Bioassay Technology Laboratory, E1474Ra).
# PTZ-induced kindling = experiment: scPTZ-induced chemical kindling model of epileptogenesis; format: in vivo, NMRI mice
# Method: The chemical kindling was induced according to the modified method of De Sarro i.e. by repeated treatment of mice with sub-convulsive dose of pentylenetetrazole (subcutaneous, 50 mg/kg) on alternate days. Four doses of Z-acid (150 mg/kg/day, 200 mg/kg/day, 250 mg/kg/day, and 300 mg/kg/day) were administered daily (intraperitoneal). However, on the day of PTZ administration, animals were treated with the Z-acid 30 minutes before administering PTZ. After PTZ was injected, each animal was placed separately in a clear plexiglass cage for close observations for 1 hour. The drug control groups received daily valproic acid. The Racine scoring categorization of epileptic seizures pattern was used to monitor the animals (Table 1). The animals showing score 4-5 were considered to be fully kindled. The cumulative kindling score was then calculated. Experiments were terminated once the animals were fully kindled. At the end of each experiment, animals were humanely sacrificed.
# Stability = format: physicochemical
# PTZ-induced seizures = experiment: Acute subcutaneous PTZ-induced seizure test; format: in vivo, mice
# Method: Anticonvulsant effects of the test compounds were evaluated using subcutaneous PTZ-induced seizure test (subcutaneous PTZ). […] The Z-acid and its analogs were administered intraperitoneally at least 30 min before subcutaneous administration of convulsive dose of PTZ (110 mg/kg). […] Latency to PTZ-induced threshold seizures was also calculated. The latency to threshold seizure is defined as the interval between the time of the PTZ-injection and the occurrence of first episode of threshold seizure. Protection of testing material against PTZ-induced mortality within 24 hours was also evaluated. […] NMRI male mice weighing between 18-22 g were selected for the study. PTZ 110 mg/Kg was administered to the PTZ group and observed the first myoclonic jerk and HLTE.
# [2] = Sub-chronic toxicity profile, intraperitoneal, 3 months; format: in vivo
# Method: To evaluate the sub-chronic toxicity profile of Z-acid the compound was administered daily into mice at the dose of 300 mg/kg (intraperitoneal) for a period of 3 months. The animals were divided into […] (8 per group) as outlined below: • Group I normal control; • Group II treated daily for 1 week; • Group III treated daily for 2 weeks; • Group IV treated daily for 1 month; • Group V treated daily for 2 months; • Group VI treated daily for 3 months
# At the end of the study, animals were anaesthetized, dissected and gross examination of vital organs were performed, along with serum and whole brain samples collection. Serum and brain sample were stored in −20° C. for further examination.
# [3] = Pharmacokinetics in plasma and brain after single intraperitoneal dose (GC/MS); format: in vivo; settings: mice, 300 mg/kg intraperitoneal
# Method: The pharmacokinetics of Z-acid in both plasma and brain after a single intraperitoneal dose of Z-acid (300 mg/kg) was studied in mice. Animals were sacrificed at 5 min, 15 min, 30 min, 60 min, 120 min, 180 min, and 240 min after the dose administration (n=4 for each time point). Blood samples were obtained in heparin containing vacutainers. The control group consists of the animals receiving no other treatment and this serve as blank plasma and aided in optimization and validation of the GC/MS method. The blood samples were later centrifuged to obtain plasma which was stored at −20° C. for further processing. Likewise, the brain samples were also collected from the sacrificed animals and stored at −20° C. for further processing on GC-MS.
# Solubility in water = format: physicochemical
# [4] = intraperitoneal experiment, vs PTZ alone
# [5] = intranasal pre-treatment (Formulation I), vs PTZ
# [6] = 300, 400 and 500 mg/Kg intraperitoneal, 30 min before PTZ 110 mg/Kg, compared to PTZ group
# [7] = 150 mg/kg intraperitoneal, 10 min after PTZ
structure (smiles),measurement,setting,value
"CN1C(=O)CN=C(c2ccccc2)c2cc(Cl)ccc21 [diazepam, reference compound]",Cfos gene expression,"Cfos; i.p. treatment, vs PTZ alone",significantly reduced
same,BDNF gene expression,"BDNF; i.p. treatment, vs PTZ alone",significantly reduced
same,spike discharge,[1],significantly reduced
same,glutamate levels,glutamate levels; [4],significantly reduced
"CCCC(CCC)C(=O)O [valproic acid, reference compound]",seizure pattern till the end of the kindling protocol,"PTZ-induced kindling; drug control, daily, compared to PTZ-kindled control group",did not exhibit any seizure pattern
"CC1=C/C(=C\C(=O)O)CC(C)(C)C1 [Z-acid, (Z)-2-(3,5,5-trimethyl-2-cyclohexen-1-ylidene) acetic acid]",stability under all conditions used in various experiments,Stability,stable
same,stability in different organic solvents,Stability; room temperature and high temperature,stable
same,Cfos gene expression,"Cfos; i.p. treatment, vs PTZ alone",significantly reduced
same,Cfos gene expression,Cfos; [5],significantly reduced
same,HLTE,PTZ-induced seizures; [6],prevented HLTE in all the animals
same,onset of myoclonic seizure,PTZ-induced seizures; [6],significantly delayed
same,seizure scoring,"PTZ-induced seizures; 300, 400 and 500 mg/Kg, compared to PTZ group (FIG. 1)",decreased the number seizure scoring significantly and dose dependently
same,BDNF gene expression,"BDNF; i.p. treatment, vs PTZ alone",significantly reduced
same,BDNF gene expression,BDNF; [5],significantly reduced
same,time after administration at which PTZ-induced spikes were significantly reduced,[1]; [7],5 min
same,time after treatment at which PTZ-induced spikes completely diminished,[1]; [7],7 to 10 min
same,spike discharge,[1],significantly reduced
same,"signs of toxicity, gross anatomy of organs","[2]; 300 mg/kg daily intraperitoneal, 3 months",did not find any sign of toxicity; also recorded: no signs of toxicity
same,"LFT profile, CBC and LDH, creatinine, and urea levels",[2]; blood samples after 3 months daily dosing 300 mg/kg,normal range
same,persistence or sequestration in brain,[3]; brain,No evidence
same,time to disappearance from brain,[3]; brain,≤ 1 h
same,time to peak concentration in brain,[3]; brain,≤ 15 min
same,apparent volume of distribution,[3]; plasma,10 L
same,time to disappearance from plasma,[3]; plasma,2 to 2.5 h
same,time to peak concentration in plasma,[3]; plasma,≤ 5 min
same,half-life,"[3]; mouse, ip, plasma",1 h
same,development of kindling induced by scPTZ administration,"PTZ-induced kindling; 300 mg/kg daily intraperitoneal, PTZ 50 mg/kg on alternate days",complete inhibition
same,active dose able to inhibit the process of epileptogenesis,"PTZ-induced kindling; daily intraperitoneal, doses tested 150-300 mg/kg/day",300 mg/kg body weight
same,glutamate levels,"glutamate levels; intranasal experiment (Formulation I), vs PTZ",significantly reduced
same,glutamate levels,glutamate levels; [4],significantly reduced
"CC1=CC(=CC(=O)O)CC(C)(C)C1 (single isomer, unassigned) [E/Z isomeric mixture, (E/Z)-2,2′-(3,5,5-trimethyl-2-cyclohexen-1-ylidene) acetic acid]",solubility in water,Solubility in water,poorly soluble
